Results as given in patent publication US20250059162A1, “MULTI-PROTEIN DEGRADATION AGENT HAVING IMIDE SKELETON” (SUZHOU KINTOR PHARMACEUTICALS, INC., priority 2021, published 2025).

Tests used:
HL60 cells = assay: Anti-proliferation on HL60 cells (CellTiter-Glo, 3 days); assay type: cell-based; conditions: Homo sapiens, HL-60, 72 h, 3 days incubation, CTG luminescence, IC50 by XLfit, read-out: HL60 cells Proliferation inhibitory activity
Experimental: HL60 cells (Cell Bank of Chinese Academy of Sciences) in the logarithmic growth phase were counted and plated evenly in a 96-well transparent bottom white plate at 20000 cells per well and 100 μL per well.
A certain amount of the compound of the present invention was weighed and diluted with DMSO to a 10 mM stock solution. The culture medium RPMI-1640 (meilunbio, MA0215) corresponding to the cells were taken, and the compound was diluted to the concentration required by the test, shaken gently and mixed evenly. 50 μL of the gradient dilution of the diluted compound was added to each well of the plated cells, and 50 μL of 0.1% DMSO was added to the control group. The plate was shaken gently, mixed evenly and incubated in a cell culture incubator for 3 days.
• 3.1 The CellTiter-Glo™ (CTG) (purchased from Promega, Cat. No. G9242) reagent was taken in advance from the −20° C. refrigerator and equilibrated to room temperature in the dark. Cell Titer-Glo buffer and Cell Titer-Glo substrate were mixed at a ratio of 1:1 to prepare a CTG detection reagent. • 3.2 The 96-well plate was taken out and inspected under a microscope for growth. • 3.3 The bottom of the 96-well plate was tagged with white paper, and then the plate was wrapped with tin foil paper, shaken at 37° C. at 300 r for 10 min and mixed evenly. • 3.4. 50 μL of CTG detection reagent was added to each well, Luminescence signal was detected using a microplate reader Biotek Synergy Hi, and the inhibition rate was calculated. IC50 values of the compounds were calculated by XLfit 5.5.0 software to evaluate the proliferation inhibitory activity on HL60 cells.

c-Myc protein = target: T1, c-Myc protein (Homo sapiens, UniProt P01106); assay: c-Myc protein degradation in HL60 cells (Western blot); assay type: cell-based; conditions: HL-60, compound at 10 nM, 24 h, gray value relative to Ctrl (DMSO), read-out: Remaining amount of c-Myc protein (@10 nM/Ctrl)
T1 construct: degradation of myc and GSPT1 proteins in HL60 cells; endogenous in cells; host or cells: HL60
Experimental: HL60 cells in the exponential growth phase were digested and plated into a 6-well plate at 1×10^6 cells per well. The cell culture medium was RPMI-1640 (meilunbio, MA0215). After a day of adherent growth of the cells, the compound of the present invention was added as a test drug for culture, and proteins were extracted 24 h later (Ctrl meant adding only DMSO at the same volume).
In the 6-well plate, the culture medium RPMI-1640 (meilunbio, MA0215) was removed, and the cells were washed once with PBS, digested with trypsin, and centrifuged and collected separately into 1.5 mL centrifuge tubes. 100 μL of RIPA lysis buffer (containing 100 μM PMSF) was added to each tube, mixed thoroughly, allowed to stand on ice for 30 min and then centrifuged at 12000 rpm at 4° C. using a centrifuge for 20 min. The supernatant was used for Western blotting experiments. The sample can be stored at −80° C.
By using the BCA protein concentration determination kit (from Thermo Fisher, Cat. No. 23225), the BSA standard determination solution and the samples to be tested (the samples to be tested can be diluted and then tested) were prepared according to the table A below. Samples were added to the 96-well plate. Each well was supplemented with PBS to 20 μL, and then 200 μL of BCA working solution (prepared according to the kit) was added respectively and mixed evenly. The plate was placed at 60° C. for 10 min, and then the absorbance at 562 nm was detected. After the reading was recorded, a standard curve was plotted using concentration gradients of the standards, and the absorbance of the samples was substituted to calculate the protein concentration of the samples.
• 2.1 Protein denaturation: RIPA protein buffer (purchased from Solarbio, Cat. No. R0010) and 5× Loading Buffer (SDS, glycerin, bromophenol blue, TRIS) (purchased from Solarbio, Cat. No. P1040) were added, and the protein samples were denatured at 100° C. for 5 min. • 2.2 Sample loading and electrophoresis: 10% precast gel and the corresponding electrophoresis buffer were used. The same mass of protein sample and protein ladder (purchased from thermo, Cat. No. 26617) were loaded into each well, and electrophoresis at 200 V was performed for 30 min. • 2.3 […]: The gel was excised to remove the excess part. Transferring to PVDF membrane was performed by the wet transfer method (before use, it was necessary to activate the PVDF membrane with methanol for 1 min) at 300 mA for 2 h, during which a lot of heat was generated, and thus cooling with an ice box was required. • 2.4 Blocking: After the transferring, the PVDF membrane was placed in 5% skim milk and blocked with shaking at room temperature for 1 h. • 2.5 Incubating with primary antibody: The PVDF membrane was cut according to the molecular weight indicated on the marker and placed in c-myc (purchased from abcam, Cat. No. ab32072), or GSPT1 (purchased from abcam, Cat. No. ab234433), or CK1α (purchased from abcam, Cat. No. ab206652), or IKZF2 (purchased from proteintech, Cat. No. 13554-1-AP), and GAPDH (purchased from CST, Cat. No. #97166) primary antibodies. The antibodies were diluted with TBST buffer (a solution prepared from TRIS, KCL and NaCl and adjusted to pH 7.4 with hydrochloric acid, and Tween 20 was added) at a ratio of 1:1000, and blocked overnight on a shaker at 4° C. • 2.6 Incubating with secondary antibody: The PVDF membrane incubated with the primary antibody was washed with TBST for 3 times, each time for 10 min. After washing, the membrane was placed in the secondary antibody of the corresponding species, and incubated at room temperature in a shaker for 2 h. • 2.7 Washing membrane and exposure: After incubated with the secondary antibodies, the membrane was washed 3 times with TBST on a shaker, 10 minutes each time. […]

T1 sequence (P01106 whole entry): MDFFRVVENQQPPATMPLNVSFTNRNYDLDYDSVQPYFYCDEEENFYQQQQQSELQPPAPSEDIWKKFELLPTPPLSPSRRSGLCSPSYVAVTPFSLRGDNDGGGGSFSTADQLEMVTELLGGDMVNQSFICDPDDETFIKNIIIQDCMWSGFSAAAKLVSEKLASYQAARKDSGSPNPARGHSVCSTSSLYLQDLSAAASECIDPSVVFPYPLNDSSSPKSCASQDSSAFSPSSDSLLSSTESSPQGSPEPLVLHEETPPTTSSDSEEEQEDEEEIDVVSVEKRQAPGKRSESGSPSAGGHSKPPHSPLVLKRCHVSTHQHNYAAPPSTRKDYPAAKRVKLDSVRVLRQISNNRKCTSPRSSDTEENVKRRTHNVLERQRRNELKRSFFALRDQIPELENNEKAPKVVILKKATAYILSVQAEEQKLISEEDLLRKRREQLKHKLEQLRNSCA

SMILES | IC50 (HL60 cells) | remaining activity at 0.01 µM (c-Myc protein)
O=C1CCC(N2Cc3cc(NC(=O)CC4CCN(c5ncc(-c6cccc7ccccc67)o5)CC4)ccc3C2=O)C(=O)N1 (stereo not drawn) [Compound A28] | 0.9 nM | 43%
O=C1CCC(N2Cc3cc(NC(=O)CC4CCN(c5ncc(-c6cccc7ccccc67)cn5)CC4)ccc3C2=O)C(=O)N1 (stereo not drawn) [Compound A30] | < 0.2 nM | 14%
O=C1CCC(N2Cc3cc(NC(=O)CC4CCN(c5ncc(-c6cccc(Cl)c6)cn5)CC4)ccc3C2=O)C(=O)N1 (stereo not drawn) [Compound A53] | < 0.2 nM | 10%
O=C1CCC(N2Cc3cc(CNCC4CCN(c5ncc(-c6cccc(Cl)c6)cn5)CC4)ccc3C2=O)C(=O)N1 (stereo not drawn) [Compound A66] | < 0.2 nM | 9%
O=C1CCC(N2Cc3cc(NC(=O)CC4CCN(c5ncc(-c6cccc7ccccc67)s5)CC4)ccc3C2=O)C(=O)N1 (stereo not drawn) [Compound A24] | 0.5 nM | 0%
O=C1CCC(N2Cc3cc(C(=O)NCC4CCN(c5nccc(-c6ccc7ccccc7c6)n5)CC4)ccc3C2=O)C(=O)N1 (stereo not drawn) [Compound A38] | 0.9 nM | 52%
O=C1CCC(N2Cc3cc(NC(=O)CC4CCN(c5ccc(-c6cccc7cccc(F)c67)cn5)CC4)ccc3C2=O)C(=O)N1 (stereo not drawn) [Compound A47] | < 0.2 nM | 19%
O=C1CCC(N2Cc3cc(C(=O)NCC4CCN(c5ncc(-c6cccc7ccccc67)cn5)CC4)ccc3C2=O)C(=O)N1 (stereo not drawn) [Compound A29] | 0.2 nM | 13%
O=C1CCC(NC(=O)c2ccc(CNCC3CCN(c4ncc(-c5cccc(Cl)c5)cc4C(F)(F)F)CC3)cc2F)C(=O)N1 (stereo not drawn) [Compound A158] | 6660 nM | –
O=C1CCC(N2Cc3cc(NC(=O)CC4CCN(c5ccc(-c6cccc7ccccc67)nc5)CC4)ccc3C2=O)C(=O)N1 (stereo not drawn) [Compound A37] | 0.2 nM | 44%
Cn1nc(N2CCC(=O)NC2=O)c2ccc(CNCC3CCN(c4ncc(-c5cccc(Cl)c5)cc4C(F)(F)F)CC3)cc21 [Compound A177] | 4350 nM | –
O=C1CCC(N2Cc3cc(NC(=O)CC4CCN(c5ccc(-c6cccc7cccnc67)cn5)CC4)ccc3C2=O)C(=O)N1 (stereo not drawn) [Compound A43] | < 0.2 nM | 23%
O=C1CCC(N2Cc3cc(CNCC4CCN(c5ncc(-c6cccc(OC(F)(F)F)c6)cc5C(F)(F)F)CC4)ccc3C2=O)C(=O)N1 (stereo not drawn) [Compound A96] | 1.8 nM | –
O=C1CC[C@H](N2Cc3cc(CNCC4CCN(c5ncc(-c6cccc(F)c6)cc5F)CC4)ccc3C2=O)C(=O)N1 [Compound A125] | 2.48 nM | –
O=C1CC[C@@H](N2Cc3cc(CNCC4CCN(c5ncc(-c6cccc(F)c6)cc5F)CC4)ccc3C2=O)C(=O)N1 [Compound A126] | 6.7 nM | –
O=C1CCC(N2Cc3cc(C(=O)NCC4CCN(c5ccnc(-c6cccc7ccccc67)n5)CC4)ccc3C2=O)C(=O)N1 (stereo not drawn) [Compound A20] | 21 nM | –
O=C1CCC(N2Cc3cc(CNCC4CCN(c5ncc(-c6cccc(Cl)c6)cc5C(F)(F)F)CC4)ncc3C2=O)C(=O)N1 (stereo not drawn) [Compound A142] | 397 nM | –
O=C1CCC(N2Cc3cc(NC(=O)CC4CCN(c5ncc(-c6ccccc6)cn5)CC4)ccc3C2=O)C(=O)N1 (stereo not drawn) [Compound A51] | < 0.2 nM | –
O=C1CCC(n2c(C3CC3)nc3cc(CNCC4CCN(c5ncc(-c6cccc(Cl)c6)cc5C(F)(F)F)CC4)ccc3c2=O)C(=O)N1 (stereo not drawn) [Compound A153] | 11600 nM | –

SMILES | IC50 (HL60 cells) | remaining activity at 0.01 µM (c-Myc protein)
O=C1CCC(N2Cc3cc(NC(=O)CC4CCN(C(=O)NCc5cccc6ccccc56)CC4)ccc3C2=O)C(=O)N1 (stereo not drawn) [Compound A1] | 190 nM | –
O=C1CCC(N2Cc3cc(NC(=O)CC4CCN(c5ccc(-c6cccc7ccccc67)nn5)CC4)ccc3C2=O)C(=O)N1 (stereo not drawn) [Compound A32] | 12 nM | –
COc1cccc(-c2cnc(N3CCC(CCNc4ccc5c(c4)CN(C4CCC(=O)NC4=O)C5=O)CC3)c(C(F)(F)F)c2)c1 (stereo not drawn) [Compound A132] | 8.37 nM | –
O=C1CCC(N2Cc3cc(CNCC4CCN(c5ncc(-c6cccc(Cl)c6)cc5F)CC4(F)F)ccc3C2=O)C(=O)N1 (stereo not drawn) [Compound A88] | 0.8 nM | –
O=C1CCC(N2Cc3cc(NC(=O)CC4CCN(c5nccc(-c6cccc7ccccc67)n5)CC4)ccc3C2=O)C(=O)N1 (stereo not drawn) [Compound A13] | 6.4 nM | –
O=C1CCC(N2Cc3cc(NC(=O)CC4CCN(c5ccc(-c6cccc7ccccc67)cn5)CC4)ccc3C2=O)C(=O)N1 (stereo not drawn) [Compound A35] | < 0.2 nM | –
O=C1CCC(N2Cc3cc(NC(=O)CC4CCN(c5ncc(-c6ccccn6)cn5)CC4)ccc3C2=O)C(=O)N1 (stereo not drawn) [Compound A59] | 0.7 nM | –
O=C1CCC(c2cn3cc(CNCC4CCN(c5ncc(-c6cccc(Cl)c6)cc5C(F)(F)F)CC4)ccc3n2)C(=O)N1 (stereo not drawn) [Compound A148] | 8520 nM | –
O=C1CCC(N2Cc3cc(C(=O)NCC4CCN(c5nccc(-c6cccc7ccccc67)n5)CC4)ccc3C2=O)C(=O)N1 (stereo not drawn) [Compound A12] | 4.5 nM | –
CN(C)c1cccc(-c2cnc(N3CCC(CNCc4ccc5c(c4)CN(C4CCC(=O)NC4=O)C5=O)CC3)c(C(F)(F)F)c2)c1 (stereo not drawn) [Compound A97] | 0.4 nM | –
COc1cc(Cl)cc(-c2cnc(N3CCC(CNCc4ccc5c(c4)CN(C4CCC(=O)NC4=O)C5=O)CC3)c(C(F)(F)F)c2)c1 (stereo not drawn) [Compound A113] | 3 nM | –
O=C1CCC(N2Cc3cc(CNCC4CC5CCC(C4)N5c4ncc(-c5cccc(Cl)c5)cc4C(F)(F)F)ccc3C2=O)C(=O)N1 (stereo not drawn) [Compound A90] | 45.6 nM | –
Cc1cccc(-c2cnc(N3CCC(CNCc4ccc5c(c4)CN([C@@H]4CCC(=O)NC4=O)C5=O)CC3)c(C(F)(F)F)c2)c1 [Compound A124] | < 3.04 nM | –
Cc1cc(Cl)cc(-c2cnc(N3CCC(CNCc4ccc5c(c4)CN(C4CCC(=O)NC4=O)C5=O)CC3)c(C(F)(F)F)c2)c1 (stereo not drawn) [Compound A114] | 11 nM | –
O=C1CCC(N2Cc3cc(NC(=O)CC4CCN(C(=O)Cn5c6ccccc6c6cccnc65)CC4)ccc3C2=O)C(=O)N1 (stereo not drawn) [Compound A11] | 39 nM | –
O=C1CCC(N2Cc3cc(NC(=O)CC4CCN(c5cc(-c6cccc7ccccc67)ccn5)CC4)ccc3C2=O)C(=O)N1 (stereo not drawn) [Compound A17] | 1.2 nM | 23%
O=C1CCC(NCc2ccc(CNCC3CCN(c4ncc(-c5cccc(Cl)c5)cc4C(F)(F)F)CC3)cc2)C(=O)N1 (stereo not drawn) [Compound A165] | 9560 nM | –
O=C1CCC(N2Cc3cc(C(=O)NCC4CCN(c5ccc(-c6cccc7cccnc67)cn5)CC4)ccc3C2=O)C(=O)N1 (stereo not drawn) [Compound A42] | 0.2 nM | –
